According to EPA's ToxValDB 9.5 (doi:10.2903/j.efsa.2005.32ar):
In brackets after ≈: the same amount, converted by molar mass.

Key:
Bibionidae = conditions: chronic/long-term; development
Canidae = conditions: chronic; duration: 6 months; oral; Dog Other; clinical signs
Rattus norvegicus = conditions: reproduction developmental
Apis mellifera = conditions: acute; duration: 48 hours; dermal; mortality
Tagia sp. = conditions: acute; mortality
Anas platyrhynchos = conditions: short-term; oral; feed; mortality
Daphnia magna = conditions: chronic/long-term; duration: 21 days; reproduction
Aphidius rhopalosiphi = test: LR50; higher = less toxic; conditions: acute; duration: 48 hours; mortality

COP(=S)(OC)Oc1c(Cl)cc(C)cc1Cl [Tolclofos-methyl]
LD50 (Mus musculus; acute, oral, mortality): 3500 mg/kg
NOAEL (Mus musculus; chronic, duration: 2 years, clinical signs): 6.4 mg/kg-day
LD50 (Colinus virginianus; acute, oral, mortality): > 5000 mg/kg
NOEL (Colinus virginianus; reproduction developmental): 49 mg/kg-day
LC50 (Oncorhynchus mykiss; acute, duration: 96 hours, mortality): 0.69 µg/mL (≈ 2.29 µM)
NOEC (Oncorhynchus mykiss; chronic/long-term, duration: 97 days, growth): 0.012 mg/L
NOEC (Bibionidae): 0.25 mg/L
NOAEL (Canidae): 21 mg/kg-day
NOEC (Rattus norvegicus): 70.6 mg/kg-day
LD50 (Apis mellifera): > 100 µg/piece
LC50 (Tagia sp.): > 1000 mg/kg
LC50 (Anas platyrhynchos): > 1620 mg/kg-day
NOEC (Daphnia magna): 0.026 mg/L
LR50 (Aphidius rhopalosiphi): 43.7 g/ha
